This test relates to carrageenan-induced inflammation model. Put plainly: plantar swelling of carrageenan-induced inflammation model in rats. It counts as in vivo, SD rats. Conditions: intragastric once, 0.007 g/kg. As to the method: Animal germline: specific pathogen-free (SPF) male SD rats, aged 6-week-old, weighing between 132 g and 199 g when received, and weighing between 152 g and 225 g when drugs are administered to rats, were purchased from Hunan Slake Jingda laboratory Animal Co., Ltd. The laboratory animal production license: SCXK (Xiang) 2016-0002 (valid until Sep. 29, 2021), issued by China Hunan Provincial Science & Technology Department. The laboratory animal quality certificate No.: 43004700060779.
Method for grouping animals: after the quarantine was over, rats that have passed the quarantine inspection were selected for experiments. Groups were randomly assigned on the basis of body weight and divided into 9 groups with 10 rats per group. The 9 groups were as follows: a negative control group, a model group, a group of rats treated with low-dose bio-transformed bear bile powder, a group of rats treated with middle-dose bio-transformed bear bile powder, a group of rats treated with high-dose bio-transformed bear bile powder, a group of rats treated with low-dose natural bear bile powder, a group of rats treated with middle-dose natural bear bile powder, a group of rats treated with high-dose natural bear bile powder, and a positive control group.
Dose and group design for the experiment: a total of 9 groups are contemplated, that is, negative control group (blank control group), a model group, a group of rats treated with low-dose bio-transformed bear bile powder, a group of rats treated with middle-dose bio-transformed bear bile powder, a group of rats treated with high-dose bio-transformed bear bile powder, a group of rats treated with low-dose natural bear bile powder, a group of rats treated with middle-dose natural bear bile powder, a group of rats treated with high-dose natural bear bile powder, and a positive control group (a group of rats treated with indomethacin).
Administration route, administration frequency, and administration period of the test substance and the control: each of them was administered intragastrically, the administration volume was 10 mL/kg, and each group was administered once.
Experimental method: SD male rats that had passed the quarantine inspection were selected for experiments. Groups were divided into 9 groups with 10 male rats per group. The 9 groups were as follows: a negative control group, a model group, a group of rats treated with low-dose bio-transformed bear bile powder, a group of rats treated with middle-dose bio-transformed bear bile powder, a group of rats treated with high-dose bio-transformed bear bile powder, a group of rats treated with low-dose natural bear bile powder, a group of rats treated with middle-dose natural bear bile powder, a group of rats treated with high-dose natural bear bile powder, and a positive control indomethacin group. Before molding, each animal was scored at the ankle joint of the right hind foot, and the volume of the right hind foot was measured with a plantar volume measuring instrument, and it was measured continuously 2 times, wherein the average value obtained from the two measurements was taken as a base volume.
Except for the blank control group, the animals in the remaining groups were injected with 1% by weight of carrageenan suspension at the right hind foot metatarsal palmar fascia, the volume for each rat was 0.1 mL; animals in the blank control group were injected with an equal volume of normal saline; corresponding drugs were administered intragastrically immediately after an injection of carrageenan. The plantar volume of the right hind foot of each group of animals was measured at 1 h, 2 h, 3 h, 4 h, 5 h, and 6 h after injection, and was measured twice consecutively, and the average value obtained from the two measurements was taken as the plantar volume after modeling. The plantar swelling and the plantar swelling inhibition rate were calculated according to the plantar volume measured at different time points after inflammation was induced. […]

The values below come from US20210015874A1, “USE OF BIO-TRANSFORMED BEAR BILE POWDER IN PREPARATION OF ANTI-INFLAMMATORY DRUGS” (SHANGHAI KAIBAO PHARMACEUTICAL CO., LTD., priority 2019, published 2021).

`COc1ccc2c(c1)c(CC(=O)O)c(C)n2C(=O)c1ccc(Cl)cc1` [Positive control, indomethacin]: where the note is “1 h after carrageenan”, the “Plantar swelling 1 h” value is given as 0.21 ± 0.14 mL. For the same compound, the “Plantar swelling 2 h” value (2 h after carrageenan) is recorded as 0.25 ± 0.16 mL. The “Plantar swelling 3 h” value (3 h after carrageenan) is reported as 0.29 ± 0.15 mL. Also, under “4 h after carrageenan”, the “Plantar swelling 4 h” value worked out at 0.15 ± 0.12 mL. Moreover, the “Plantar swelling 5 h” value (5 h after carrageenan) is reported as 0.19 ± 0.09 mL. Also, the “Plantar swelling 6 h” value (6 h after carrageenan) worked out at 0.17 ± 0.10 mL.
